# Experimental data: patent US20050096311A1, “Compositions and methods for treatment of nervous system disorders” (CNS Response, priority 2003, published 2005)
# Key:
# [1] = target: norepinephrine uptake (Homo sapiens, UniProt P23975); settings: cited from earlier work
# [2] = test system: Parkinson's disease symptoms; settings: cited from earlier work
# [3] = test system: nervous system disorder symptoms in affected patients; experiment: Randomized double-blind study in naive patients presenting at least one symptom of a nervous system disorder (Example 1); format: in vivo
# Source text: The design of this study is a randomized double-blind protocol in which a first set of clinicians diagnosed a group of naive (i.e., previously untreated) patients presenting at least one symptom of a nervous system disorder.
# A second set of clinicians will monitor the compliance of each patient and assess the presence or absence of at least one symptom of a nervous system disorder on a weekly basis throughout the treatment period. At the termination of the study a third set of clinicians will evaluate the data and document the results.
# Relative to Group I, all treatment groups are expected to reduce at least one symptom of a nervous system disorder except Group IV.
# [4] = cited from earlier work
# [5] = test system: pain of migraine; settings: oral or intrapulmonary administration; cited from earlier work
# [6] = biphasic elimination; cited from earlier work
# [7] = formulated as a hydrochloride salt; cited from earlier work
# [8] = target: dopamine uptake (Homo sapiens, UniProt Q01959); settings: cited from earlier work
# [9] = test system: migraine attacks; settings: given prophylactically; cited from earlier work
# [10] = cited from earlier work; remark: listed apart in the source
# Chain of norepinephrine uptake (P23975 whole entry): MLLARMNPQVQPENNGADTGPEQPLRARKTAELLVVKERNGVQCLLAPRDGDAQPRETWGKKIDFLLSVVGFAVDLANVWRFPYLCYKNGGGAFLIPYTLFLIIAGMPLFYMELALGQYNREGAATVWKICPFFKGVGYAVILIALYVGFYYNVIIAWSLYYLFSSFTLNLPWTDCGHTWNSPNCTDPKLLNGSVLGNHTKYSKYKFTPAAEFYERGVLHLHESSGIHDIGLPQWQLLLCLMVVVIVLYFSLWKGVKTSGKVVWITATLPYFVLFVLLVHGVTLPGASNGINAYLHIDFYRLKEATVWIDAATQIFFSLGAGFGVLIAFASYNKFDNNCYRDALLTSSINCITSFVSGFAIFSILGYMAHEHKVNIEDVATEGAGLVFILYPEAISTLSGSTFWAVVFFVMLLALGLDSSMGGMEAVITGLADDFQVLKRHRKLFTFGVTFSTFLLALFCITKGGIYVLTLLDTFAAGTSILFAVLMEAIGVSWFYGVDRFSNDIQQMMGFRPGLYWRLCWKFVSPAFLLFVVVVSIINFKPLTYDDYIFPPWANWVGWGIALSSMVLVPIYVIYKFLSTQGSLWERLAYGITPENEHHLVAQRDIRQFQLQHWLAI
# Chain of dopamine uptake (Q01959 whole entry): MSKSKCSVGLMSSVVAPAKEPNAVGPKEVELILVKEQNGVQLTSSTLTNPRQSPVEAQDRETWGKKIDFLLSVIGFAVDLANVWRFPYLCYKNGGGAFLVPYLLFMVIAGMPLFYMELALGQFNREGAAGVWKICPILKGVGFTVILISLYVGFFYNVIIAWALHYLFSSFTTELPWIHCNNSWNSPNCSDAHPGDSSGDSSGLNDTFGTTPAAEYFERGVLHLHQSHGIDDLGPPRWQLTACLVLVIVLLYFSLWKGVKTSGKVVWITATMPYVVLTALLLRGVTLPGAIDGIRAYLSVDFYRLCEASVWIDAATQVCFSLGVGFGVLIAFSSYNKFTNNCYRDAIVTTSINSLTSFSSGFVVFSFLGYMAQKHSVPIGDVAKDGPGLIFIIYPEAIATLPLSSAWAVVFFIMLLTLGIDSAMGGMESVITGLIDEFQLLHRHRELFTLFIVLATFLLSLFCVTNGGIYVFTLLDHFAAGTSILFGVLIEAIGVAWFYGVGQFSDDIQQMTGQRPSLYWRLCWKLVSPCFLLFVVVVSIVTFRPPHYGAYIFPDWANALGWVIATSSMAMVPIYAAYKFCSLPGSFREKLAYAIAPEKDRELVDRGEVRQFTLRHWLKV
smiles,measurement,setting,value
"C[C@@H]1NC(C)(C)CO[C@@]1(O)c1cccc(Cl)c1 [(S,S)-hydroxybupropion]",inhibition of norepinephrine uptake,[1],effective inhibitor of only norepinephrine uptake
C[C@@](Cc1ccc(O)c(O)c1)(NN)C(=O)O [carbidopa],reduction of the dose of levodopa,[2]; concurrent administration of carbidopa,≤ 75%
NC(=O)N1c2ccccc2CC(=O)c2ccccc21 [oxcarbazepine],Percent Reduction In Nervous System Disorder Symptoms In Affected Patients,[3]; Symptom EIGHT,10 ± 1%
same,Percent Reduction In Nervous System Disorder Symptoms In Affected Patients,[3]; Symptom FIVE,10 ± 1%
same,Percent Reduction In Nervous System Disorder Symptoms In Affected Patients,[3]; Symptom FOUR,10 ± 1%
same,Percent Reduction In Nervous System Disorder Symptoms In Affected Patients,[3]; Symptom ONE,10 ± 1%
same,Percent Reduction In Nervous System Disorder Symptoms In Affected Patients,[3]; Symptom SEVEN,10 ± 1%
same,Percent Reduction In Nervous System Disorder Symptoms In Affected Patients,[3]; Symptom SIX,10 ± 1%
same,Percent Reduction In Nervous System Disorder Symptoms In Affected Patients,[3]; Symptom THREE,10 ± 1%
same,Percent Reduction In Nervous System Disorder Symptoms In Affected Patients,[3]; Symptom TWO,10 ± 1%
same,plasma half-life,[4]; 600 mg oxcarbazepine dose,approximately 19.3±6.2 hours
CN1C[C@H](C(=O)N[C@]2(C)O[C@@]3(O)[C@@H]4CCCN4C(=O)[C@H](Cc4ccccc4)N3C2=O)C=C2c3cccc4[nH]cc(c34)C[C@H]21 [Ergotamine],time to pain relief,[5],5 h
"CC(NC(C)(C)C)C(=O)c1cccc(Cl)c1 (stereo not drawn) [bupropion, m-chloro-α-(t-butylamino)propiophenone]",Percent Reduction In Nervous System Disorder Symptoms In Affected Patients,[3]; Symptom EIGHT,25 ± 2.5%
same,Percent Reduction In Nervous System Disorder Symptoms In Affected Patients,[3]; Symptom FIVE,25 ± 2.5%
same,Percent Reduction In Nervous System Disorder Symptoms In Affected Patients,[3]; Symptom FOUR,25 ± 2.5%
same,Percent Reduction In Nervous System Disorder Symptoms In Affected Patients,[3]; Symptom ONE,25 ± 2.5%
same,Percent Reduction In Nervous System Disorder Symptoms In Affected Patients,[3]; Symptom SEVEN,25 ± 2.5%
same,Percent Reduction In Nervous System Disorder Symptoms In Affected Patients,[3]; Symptom SIX,25 ± 2.5%
same,Percent Reduction In Nervous System Disorder Symptoms In Affected Patients,[3]; Symptom THREE,25 ± 2.5%
same,Percent Reduction In Nervous System Disorder Symptoms In Affected Patients,[3]; Symptom TWO,25 ± 2.5%
same,elimination half-life,[6],11 to 14 h
same,redistribution half-life,[6],about one
same,solubility,[7],water-soluble
"N[C@@H](Cc1ccc(O)c(O)c1)C(=O)O [Levodopa, L-3,4-dihydroxyphenylalanine]",reduction in symptomology,[2]; Parkinson's disease patients,50%
same,treated patients showing the reduction in symptomology,[2]; Parkinson's disease patients,75%
C[C@H]1NC(C)(C)CO[C@]1(O)c1cccc(Cl)c1 [hydroxybupropion],inhibition of norepinephrine uptake,[1],effective inhibitor
same,inhibition of dopamine uptake,[8],effective inhibitor
CC(C)NCC(O)COc1cccc2ccccc12 (stereo not shown) [propranolol],patients with reduced frequency and intensity of migraine attacks,[9],70%
"NC(=O)N1c2ccccc2CC(O)c2ccccc21 (stereo not shown) [MHD, 10, 11-dihydro-10-OH-carbazepine]",increase in the non-protein bound plasma MHD concentration,[4]; co-administration of oxcarbazepine and vilooxazoine,11%
same,plasma protein binding,[10]; distribution between blood cell compartments,low level of plasma protein binding
same,mean non-protein bound MHD fraction,[10]; epileptic patients,approximately 56.7 +/−5.5%
